Results from US12509430B2, “Inhibitors of nicotinamide N-methyltransferase, compositions and uses thereof” (President and Fellows of Harvard College, priority 2020, dated 2025).
Read-outs that look alike come from different tables or passages of the source.

Key:
U2OS = experiment: Cellular Activity IC50 (U2OS); format: cell-based; details: Homo sapiens
3T3L-1 = experiment: Cellular Activity IC50 (3T3L-1); format: cell-based; details: Mus musculus, 3T3-L1
recombinant human NNMT = molecular target: T1, recombinant human NNMT (Homo sapiens, UniProt P40261); experiment: in vitro NNMT enzyme inhibition assay (Promega MTase-Glo Methyltransferase Assay); format: biochemical
T1 sequence (P40261 1-264): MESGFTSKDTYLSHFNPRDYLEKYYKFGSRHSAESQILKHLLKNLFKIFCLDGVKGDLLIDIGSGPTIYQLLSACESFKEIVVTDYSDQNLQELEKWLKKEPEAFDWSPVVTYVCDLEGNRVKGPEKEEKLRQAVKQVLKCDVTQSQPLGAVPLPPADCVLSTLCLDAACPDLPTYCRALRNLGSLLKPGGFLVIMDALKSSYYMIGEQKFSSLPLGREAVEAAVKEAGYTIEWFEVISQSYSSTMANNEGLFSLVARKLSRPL
Description: NNMT biochemical activity for was evaluated using the Promega Mtase-Glo Methyltransferase Assay kit. Assays were performed in a white, flat-bottomed 96 well plate. […] Reactions were performed for 20 minutes at room temperature. MTase-Glo reagent and MTase-Glo detection solution were added according to manufacturer's instructions and luminescence signal measured with a SpectraMax i3 plate reader and data analyzed with GraphPad Prism version 8. FIG. 14 depicts a visual summary of the Promega MTase-Glo Methyltransferase assay used to assess biochemical activity of novel inhibitors.

[1] = Microsomal stability, human microsomes with NADPH (Phase I); format: in vitro ADME; details: human liver microsomes; for CLhep predicted at 2 μM: read-out: Predicted hepatic Clint; for CLint scaled at 2 μM: read-out: Scaled-up CLint
Description: (§1) The metabolism of Compounds 4 and 13 was evaluated using a microsomal stability assay. Briefly, a master solution was prepared according to Tables 5 and 6.
(§2) The final concentrations of NADPH was 1 mM. […] Samples with NADPH were prepared in duplicate. Negative controls were prepared in singlet.
(§3) Verapamil was used as positive control in this study. The final concentration of test compound or control compound was 2 μM.
(§4) Aliquots of 50 μL were taken from the reaction solution at 0, 15, 30, 45 and 60 minutes.

NNMT in K562 cells = molecular target: T2, NNMT in K562 cells (Homo sapiens, UniProt P40261); experiment: Cellular inhibition of NNMT in K562 cells by 1-MNA quantification; format: cell-based
T2 construct: In K562 cells, which express NNMT; host or cells: K562
T2 sequence (P40261 1-264): T1 sequence (P40261 1-264)
Description: Cellular activity was measured in K562 (ATCC) cells via measuring (1-methyl nicotinamide) 1-MNA levels after compound incubation at varying concentrations overnight. […] Cells were collected by pipetting and extracted with 200 ul acetonitrile containing internal deuterated standard 10 ng/ml d4-1-MNA. […] The mobile phase A was 2.5 mM ammonium formate in water, and mobile phase B was methanol with 0.1% formic acid, delivered at 0.25 mL/min. The capillary voltage was set to 2400V and the nozzle at 300V. The drying gas temperature was 240° C., the drying gas flow rate was 4 L/min, and the nebulizer pressure was 40 psi. The mass spectrometer was run in multiple reaction monitoring mode.
(§5) All cells were cultured at 37° C. in a humidified incubator buffered with 5% CO2. K562 cells were maintained in RPMI supplemented with 10% fetal bovine serum (FBS). Ovarian CAFs were maintained in MSC-Gro Vitroplus III for proliferation and in DMEM containing 10 μM methionine with 10% dialyzed FBS for experiments. K562 were purchased from ATCC. Ovarian CAFs were purchased from Neuromics.

[2] = Microsomal stability, mouse microsomes with NADPH (Phase I); format: in vitro ADME; details: mouse liver microsomes; for CLhep predicted at 2 μM: read-out: Predicted hepatic Clint; for CLint scaled at 2 μM: read-out: Scaled-up CLint
Description: as §1, §2, §3, §4

[3] = Microsomal stability, mouse microsomes with NADPH and UDPGA (Phase II); format: in vitro ADME; details: mouse liver microsomes, NADPH & UDPGA
Description: as §1
(§6) For the assay with NADPH and UDPGA (Phase II), 40 μL of 10 mM NADPH solution and 40 μL of 20 mM UDPGA solution were added to each well. The final concentrations of NADPH and UDPGA were 1 mM and 2 mM. […] The negative control samples were prepared by replacing cofactors (NADPH and UDPGA) solution with 80 μL of ultra-pure H2O. Samples with cofactors were prepared in duplicate. Negative controls were prepared in singlet.
(§7) The reaction was started with the addition of 2 μL of 400 μM control compound or test compound solutions. Diclofenac was used as positive control in this study. The final concentration of test compound or control compound was 2 μM.
as §4

[4] = In vivo pharmacokinetics, plasma concentration of inhibitor in female C57B16/N mice
Description: Doses were freshly prepared on the day of dosing.

[5] = test system: 1-Methylnicotinamide (1-MNA); experiment: In vivo pharmacodynamics, plasma 1-MNA in female C57B16/N mice after inhibitor dosing; set-up: species or system mouse
Description: 1-Methylnicotinamide (1-MNA) concentrations were also determined.
Then the samples were vortexed for 30 s.

[6] = Microsomal stability, human microsomes with NADPH and UDPGA (Phase II); format: in vitro ADME; details: human liver microsomes, NADPH & UDPGA
Description: as §1, §6, §7, §4

[7] = test system: Ovarian Cancer Associated Fibroblasts (CAF) markers; experiment: CAF markers in ovarian CAFs (gel electrophoresis); format: cell-based, human; details: incubation with compound, FIG. 5
Description: as §5

NNMT in ovarian CAFs = molecular target: T3, NNMT in ovarian CAFs (Homo sapiens, UniProt P40261); experiment: 1-MNA quantification in ovarian cancer associated fibroblasts; format: cell-based; details: 1 μM, six day continuous treatment
T3 construct: host or cells: ovarian cancer-associated fibroblasts
T3 sequence (P40261 1-264): T1 sequence (P40261 1-264)
Description: as §5
1-MNA quantification in ovarian CAFs (Neuromics) was performed similarly as in K562 cells, except cells were scraped off the plate in PBS buffer after a six day continuous treatment with compound and then extracted.

[8] = K562, read-out: Cellular Activity IC50 (K562)
[9] = read-out: Predicted hepatic Clint
[10] = IV 1 mg/kg, female C57B16/N mice
[11] = PO 10 mg/kg, female C57B16/N mice, plasma
[12] = PO 50 mg/kg, female C57B16/N mice, plasma
[13] = female, C57B16/N, mouse, plasma, iv, 1 mg/kg
[14] = female, C57B16/N, mouse, plasma, po, 10 mg/kg
[15] = female, C57B16/N, mouse, plasma, po, 50 mg/kg
[16] = plasma 1-MNA after inhibitor IV 1 mg/kg
[17] = plasma 1-MNA after inhibitor PO 10 mg/kg
[18] = plasma 1-MNA after inhibitor PO 50 mg/kg

## COc1ccc(C(N)=O)cn1 [JBSNF-000088]
U2OS
  IC50: 1600 nM
3T3L-1
  IC50: 6.3 µM
Recombinant human NNMT; read-out: in vitro hNNMT IC50
  IC50: 2400 nM

## CNc1cc(Cl)c(C(N)=O)cn1 [Compound 13]
[1]
  microsomal CLint at 2 μM: < 5.42 µL/min/mg
  half-life at 2 μM: > 256 min
  Remaining (%) at 60 min: 110.09%
  CLhep predicted at 2 μM: < 5.12 mL/min/kg
  CLint scaled at 2 μM: < 6.79 mL/min/kg
NNMT in K562 cells; [8]
  IC50: 106 nM
[2]
  microsomal CLint at 2 μM: < 5.42 µL/min/mg
  half-life at 2 μM: > 256 min
  Remaining (%) at 60 min: 85.85%
  CLhep predicted at 2 μM: < 18.8 mL/min/kg
  CLint scaled at 2 μM: < 23.7 mL/min/kg
Recombinant human NNMT; read-out: in vitro hNNMT IC50
  IC50: 673 nM

## CNc1cc(C)c(C(N)=O)cn1 [Compound 4, 4-methyl-6-(methylamino) nicotinamide]
[1]
  microsomal CLint at 2 μM: < 5.42 µL/min/mg
  half-life at 2 μM: > 256 min
  Remaining (%) at 60 min: 94.54%
  CLhep predicted at 2 μM: < 5.12 mL/min/kg
  CLint scaled at 2 μM: < 6.79 mL/min/kg
NNMT in K562 cells; [8]
  IC50: 16 nM
NNMT in K562 cells; K562 cells, 24 h, 1-MNA quantification, read-out: IC50, NNMT inhibition in K562 cells
  IC50: 15 nM
[3]
  microsomal CLint at 2 μM: < 5.42 µL/min/mg
[3]; 2 μM
  half-life at 2 μM: > 256 min
[3]; 60 min
  Remaining (%) at 60 min: 85.18%
[3]; [9]
  CLhep predicted at 2 μM: < 18.8 mL/min/kg
[3]; read-out: Scaled-up CLint
  CLint scaled at 2 μM: < 23.7 mL/min/kg
[4]; [10]
  Cl_obs: 62.8 mL/min/kg
  Vss_obs: 0.786 L/kg
[4]; IV 1 mg/kg, female C57B16/N mice, plasma
  AUC_%Extrap_obs: 1.63%
[4]; PO 10 mg/kg, female C57B16/N mice
  F_last: 101%
[4]; [11]
  AUC_%Extrap_obs: 0.194%
  T1/2: 1.11 h
[4]; PO 50 mg/kg, female C57B16/N mice
  F_last: 222%
[4]; [12]
  AUC_%Extrap_obs: 0.319%
  AUClast: 30747 ng·h/mL
  Cmax: 38900 ng/mL
  T1/2: 1.79 h
[4]; [13]
  AUC(0-inf): 278 ng·h/mL
  AUC(0-t): 273 ng·h/mL
  C0: 1190 ng/mL
  MRT inf: 13 min
  half-life: 10.4 min
[4]; [14]
  AUC(0-inf): 2810 ng·h/mL
  AUC(0-t): 2800 ng·h/mL
  Cmax: 4000 ng/mL
  MRT inf: 38.1 min
[4]; [15]
  AUC(0-inf): 30800 ng·h/mL
  MRT inf: 41.7 min
[2]
  microsomal CLint at 2 μM: < 5.42 µL/min/mg
  half-life at 2 μM: > 256 min
  Remaining (%) at 60 min: 85.32%
  CLhep predicted at 2 μM: < 18.8 mL/min/kg
  CLint scaled at 2 μM: < 23.7 mL/min/kg
[5]; [16]
  AUClast of 1-MNA: 792 ng·h/mL
  Cmax of 1-MNA: 39.3 ng/mL
  Tmax of 1-MNA: 16.7 h
[5]; [17]
  AUClast of 1-MNA: 761 ng·h/mL
  Cmax of 1-MNA: 42.4 ng/mL
  Tmax of 1-MNA: 18.7 h
[5]; [18]
  AUClast of 1-MNA: 678 ng·h/mL
  Cmax of 1-MNA: 48.8 ng/mL
  Tmax of 1-MNA: 24.0 h
[6]
  microsomal CLint at 2 μM: < 5.42 µL/min/mg
[6]; 2 μM
  half-life at 2 μM: > 256 min
[6]; 60 min
  Remaining (%) at 60 min: 96.85%
[6]; [9]
  CLhep predicted at 2 μM: < 5.12 mL/min/kg
[6]; read-out: Scaled-up CLint
  CLint scaled at 2 μM: < 6.79 mL/min/kg
[7]
  CAF markers in ovarian CAFs: reduction in CAF markers
NNMT in ovarian CAFs
  NNMT inhibition in ovarian CAFs (1-MNA quantification): significantly inhibited NNMT
Recombinant human NNMT; 40 nM recombinant human NNMT, 8 μM nicotinamide, 20 min, read-out: IC50, in vitro NNMT enzyme inhibition assay
  IC50: 244 nM
Recombinant human NNMT; read-out: in vitro hNNMT IC50
  IC50: 240 nM

## CNc1ccc(C(N)=O)cn1 [JBSNF-000265, reference compound]
[1]
  microsomal CLint at 2 μM: ~6.84 µL/min/mg
  half-life at 2 μM: ~203 min
  Remaining (%) at 60 min: 81.72%
  CLhep predicted at 2 μM: ~6.06 mL/min/kg
  CLint scaled at 2 μM: ~8.57 mL/min/kg
U2OS
  IC50: 300 nM
[4]; [12]
  AUC_%Extrap_obs: 0.0313%
[4]; [15]
  AUC(0-inf): 15500 ng·h/mL
  AUC(0-t): 15400 ng·h/mL
  Cmax: 20900 ng/mL
  MRT inf: 34.2 min
  Tmax: 20 min
  half-life: 63.6 min
3T3L-1
  IC50: 2.1 µM
[2]
  microsomal CLint at 2 μM: ~4.94 µL/min/mg
  half-life at 2 μM: ~280 min
  Remaining (%) at 60 min: 84.73%
  CLhep predicted at 2 μM: ~17.4 mL/min/kg
  CLint scaled at 2 μM: ~21.6 mL/min/kg
[5]; [18]
  AUClast of 1-MNA: 799 ng·h/mL
  Cmax of 1-MNA: 39.3 ng/mL
  Tmax of 1-MNA: 6.7 h

## CNc1cc(C)c(C(N)=O)cn1 [JBSNF-000581, reference compound]
Recombinant human NNMT; read-out: in vitro hNNMT IC50
  IC50: 840 nM
